Test results reported in patent publication US20060019890A1, “Method for treating cardiac remodeling following myocardial injury” (priority 2004, published 2006).

Assays:
[1] = system: human cardiac fibroblasts; test: Real-time RT-PCR gene expression in cardiac fibroblasts; assay type: cell-based; conditions: normalized to 18s RNA
Procedure: Real-time RT-PCR^18 was performed in a two-step manner. cDNA synthesis and real-time detection were carried out in a PTC-100™ Thermal Cycler (MJ Research Inc, Waltham, Mass.) and an ABI Prism™ 7700 Sequence Detection System (Applied Biosystems, Foster City, Calif.), respectively. Random hexamers (Qiagen, Valencia, Calif.) were used to generate cDNA from 200 ng RNA as described in Applied Biosystems User Bulletin #2. TaqMan™ PCR Core Reagent Kit or TaqMan™ Universal PCR Master Mix (Applied Biosystems) were used in subsequent PCR reactions according to the manufacturer's protocols. Relative quantitation of gene expression was performed using the relative standard curve method. All real-time RT-PCR reactions were performed in triplicate.
Sequence specific primers and probes were designed using Primer Express Version 2 software (Applied Biosystems). Sequences of primers and probes can be found in Table 1 below. Expression levels were normalized to 18S rRNA. The selection of 18S rRNA as an endogenous control was based on an evaluation of the ΔCT levels (Applied Biosystems document # 4308134C) of 6 “housekeeping” genes: Cyclophilin A, 18S, GAPDH, β-actin, β-Glucuronidase, and Hypoxanthine Guanine Phosphoribosyl Transferase.

[2] = system: human cardiac fibroblasts; test: Western blot analysis of Collagen 1 and Fibronectin protein; assay type: cell-based; conditions: 48 h
Procedure: Lysis was induced with 0.2 ml of buffer containing 20 mM Tris-HCL, pH 7.9, 137 mM NaCl, 1% Triton X-100, 5 mM EDTA, 10 mM NaF, 1 mM β-glycerophosphate, and protease inhibitor cocktail. The protein concentration of each lysate was measured using coomassie protein reagent from PIERCE. Twenty μg of protein from each sample was loaded and electrophoresed on 4-12% gradient polyacrylamide gels and electrophoretically transferred to nitrocellulose membranes (Invitrogen, San Diego, Calif.). The membranes were incubated with rabbit anti-human Collagen 1 antibody (Cortex Biochem, San Leandro, Calif.), HRP-conjugated anti-human Fibronectin antibody, or goat anti-Actin antibody (Santa Cruz Biotehnology, Santa Cruz, Calif.) in TBST buffer containing 20 mM Tris-HCl, pH 7.5, 150 mM NaCl, 0.1% Tween-20, and 5% nonfat dried milk at 4° C. for ˜16 h. For ERK phosphorylation, cells were treated with 0.5 μmol/L BNP in the presence of 1 μmol/L KT5823 or 10 μmol/L U0126 for 15 min; the membranes were incubated with rabbit anti-human phospho-ERK ½ antibody or rabbit anti-human ERK ½ antibody (Cell Signaling, Beverly, Mass.). For secondary antibody detection, membranes were incubated with HRP-conjugated anti-rabbit antibody or anti-goat antibody at room temperature for 1 h and washed 3 times with TBST buffer. The blots were soaked in ECL Plus reagent for 5 min and exposed to KODAK x-ray film. Signals were identified and quantified using a Typhoon Scanner and Densitometer from Amersham Biosciences (Piscataway, N.J.). Data was analyzed by ANOVA using the Newman-Keuls test to assess significance. Results cGMP Production in Cardiac Fibroblasts

[3] = system: human cardiac fibroblasts; test: BrdU incorporation, cardiac fibroblast proliferation; assay type: cell-based; conditions: 5 ng/ml TGFβ
Procedure: Cells were placed in 96-well plates and cultured for 24 h before changing to serum-free medium. […] Subsequently, 10 μmol/L of 5-bromo-2′-deoxyuridine (BrdU) was added to the cells, and they were cultured for an additional 24 h. BrdU incorporation was detected using the Cell Proliferation ELISA kit (Roche, Indianapolis, Ind.). Data was analyzed by ANOVA using the Newman-Keuls test to assess significance.

[4] = system: human cardiac fibroblasts; test: cDNA microarray gene expression profiling of TGFβ- and/or BNP-treated cardiac fibroblasts; conditions: for number of gene expression changes induced: 1.8-fold threshold
Procedure: Two lots of primary human cardiac fibroblasts, derived from a person (lot 1) and a person (lot 2), were provided by Cambrex Bio Science (Walkersville, Md.). Cells stained positive for α-smooth muscle actin and vimenfin antibodies corroborating their identity as cardiac fibroblasts and myofibroblasts. Both lots were used for the real-time RT-PCR studies; lot 1 was used for the microarray analysis. Cells at passage 3-5 were cultured in FGM containing 15% FBS. At confluence, cells were split and cultured in 6-well plates for 24 h.
Gene expression profiles were determined from cDNA microarrays containing 8,600 elements derived from clones isolated from normalized cDNA libraries or purchased from ResGen (Invitrogen Life Technologies, Carlsbad, Calif.). DNA for spotting was generated by PCR amplification using 5′amino-modified primers (BD Biosciences Clontech, Palo Alto, Calif.) derived from flanking vector sequences. Amplified DNA was purified in a 96-well format using Qiagen's Qiaquick columns (Valencia, Calif.) according to the manufacturer's recommendations. Samples were eluted in Milli-Q purified water, dried to completion and resuspended in 7 μl of 3×SSC. A fluorescent assay using PicoGreen (Molecular Probes, Eugene, Oreg.) was randomly performed on 12% of the PCR products to determine the average yield after purification; yields were ˜1.5 μg of DNA which corresponds to a concentration of 214 μg/ml. Purified DNA was arrayed from 384-well microtiter plates onto lysine-coated glass slides using an OmniGrid II microarrayer (GeneMachines, San Carlos, Calif.). After printing, DNA was cross-linked to the glass with 65 mjoules UV irradiation and reactive amines were blocked by treatment with succinic anhydride.
Total RNA was extracted from cells using Qiagen's RNeasy kit; two wells from a 6 well plate were pooled to yield a total of 4×10^5 cells per treatment. RNA was amplified using a modified Eberwine protocol^5 that incorporated a polyA tail into the amplified RNA. Fluorescently-labeled cDNA probes were generated by reverse transcription of 4 μg of RNA with SuperScript II (Invitrogen Life Technologies, Carlsbad, Calif.) using anchored dT primers in the presence of Cy3 or Cy5 dUTP (Amersham, Piscataway, N.J.). Labeled cDNA probe pairs were precipitated with ethanol and purified using Qiaquick columns. Twenty μg each of poly(A) DNA, yeast tRNA, and human Cot1 DNA (Applied Genetics, Melbourne, Fla.) was added to the eluant. The samples were dried to completion and resuspended in 12.5 μl 3×SSC, 0.1% SDS. Probes were heated to 95° C. for 5 minutes, applied to the arrays under a 22 mm^2 cover slip and allowed to hybridize for at least 16 h at 65° C. The arrays were washed at 55° C. for 10 minutes in 2×SSC, 0.1% SDS, followed by two washes at room temperature in 1×SSC (10 min) and 0.2×SSC (15 min). Hybridization of each fluorophore was quantified using an Axon GenePix 4000A scanner.
Differential expression values were expressed as the ratio of the median of background-subtracted fluorescent intensity of the experimental RNA to the median of background-subtracted fluorescent intensity of the control RNA. For ratios greater than or equal to 1.0, the ratio was expressed as a positive value. For ratios less than 1.0, the ratio was expressed as the negative reciprocal (i.e., a ratio of 0.5=−2.0). Median ratios were normalized to 1.0 using two pools of 3000 randomly chosen cDNAs in each pool. Six replicates of each of the two pools were printed in 4 evenly distributed blocks of the array. Expression data was rejected if neither channel produced a signal of at least 2.0-fold over background. Differential expression ratios were determined as the mean of the two values from dye-swapped duplicates.

Substance: TGFβ
- ACTA2 expression level relative to control ([1]; 6 h, lot 1): 1.1 ± 0.11
- CTGF expression level relative to control ([1]; 6 h, lot 1): 3.5 ± 0.08
- Collagen 1 expression level relative to control ([1]; 6 h, lot 1): 1.9 ± 0.04
- Fibronectin expression level relative to control ([1]; 6 h, lot 1): 1.1 ± 0.17
- IL6 expression level relative to control ([1]; 6 h, lot 1): 3.6 ± 0.27
- IL11 expression level relative to control ([1]; 6 h, lot 1): 13.3 ± 0.89
- PTGS2/COX-2 expression level relative to control ([1]; 6 h, lot 1): 9.0 ± 1.49
- SERPINE1/PAI-1 expression level relative to control ([1]; 6 h, lot 1): 7.3 ± 0.44
- TIMP3 expression level relative to control ([1]; 6 h, lot 1): 1.4 ± 0.03
- ACTA2 expression level relative to control ([1]; 24 h, lot 1): 2.2 ± 0.00
- CTGF expression level relative to control ([1]; 24 h, lot 1): 3.3 ± 0.25
- Collagen 1 expression level relative to control ([1]; 24 h, lot 1): 3.3 ± 0.05
- Fibronectin expression level relative to control ([1]; 24 h, lot 1): 1.0 ± 0.05
- IL6 expression level relative to control ([1]; 24 h, lot 1): 1.7 ± 0.14
- IL11 expression level relative to control ([1]; 24 h, lot 1): 32.3 ± 0.82
- PTGS2/COX-2 expression level relative to control ([1]; 24 h, lot 1): 3.5 ± 0.67
- SERPINE1/PAI-1 expression level relative to control ([1]; 24 h, lot 1): 8.5 ± 0.08
- TIMP3 expression level relative to control ([1]; 24 h, lot 1): 2.6 ± 0.26
- ACTA2 expression level relative to control ([1]; 24 h, lot 2): 2.3 ± 0.12
- CTGF expression level relative to control ([1]; 24 h, lot 2): 2.2 ± 0.16
- Collagen 1 expression level relative to control ([1]; 24 h, lot 2): 1.5 ± 0.09
- Fibronectin expression level relative to control ([1]; 24 h, lot 2): 1.0 ± 0.02
- IL6 expression level relative to control ([1]; 24 h, lot 2): 1.4 ± 0.05
- IL11 expression level relative to control ([1]; 24 h, lot 2): 7.7 ± 0.81
- PTGS2/COX-2 expression level relative to control ([1]; 24 h, lot 2): 4.9 ± 0.36
- SERPINE1/PAI-1 expression level relative to control ([1]; 24 h, lot 2): 2.4 ± 0.06
- TIMP3 expression level relative to control ([1]; 24 h, lot 2): 1.5 ± 0.12
- ACTA2 expression level relative to control ([1]; 48 h, lot 1): 1.0 ± 0.19
- CTGF expression level relative to control ([1]; 48 h, lot 1): 3.1 ± 0.01
- Collagen 1 expression level relative to control ([1]; 48 h, lot 1): 3.8 ± 0.38
- Fibronectin expression level relative to control ([1]; 48 h, lot 1): 2.2 ± 0.38
- IL6 expression level relative to control ([1]; 48 h, lot 1): 1.6 ± 0.12
- IL11 expression level relative to control ([1]; 48 h, lot 1): 17.6 ± 0.22
- PTGS2/COX-2 expression level relative to control ([1]; 48 h, lot 1): 2.2 ± 0.12
- SERPINE1/PAI-1 expression level relative to control ([1]; 48 h, lot 1): 8.4 ± 1.33
- TIMP3 expression level relative to control ([1]; 48 h, lot 1): 3.0 ± 0.34
- ACTA2 expression level relative to control ([1]; 48 h, lot 2): 2.5 ± 0.13
- CTGF expression level relative to control ([1]; 48 h, lot 2): 2.1 ± 0.14
- Collagen 1 expression level relative to control ([1]; 48 h, lot 2): 2.5 ± 0.32
- Fibronectin expression level relative to control ([1]; 48 h, lot 2): 2.0 ± 0.39
- IL6 expression level relative to control ([1]; 48 h, lot 2): 1.4 ± 0.17
- IL11 expression level relative to control ([1]; 48 h, lot 2): 5.9 ± 0.18
- PTGS2/COX-2 expression level relative to control ([1]; 48 h, lot 2): 5.4 ± 0.92
- SERPINE1/PAI-1 expression level relative to control ([1]; 48 h, lot 2): 2.6 ± 0.03
- TIMP3 expression level relative to control ([1]; 48 h, lot 2): 1.7 ± 0.13
- induction of Collagen 1 protein synthesis [2]: ~3 fold
- increase in cardiac fibroblast proliferation (BrdU incorporation) [3]: ~50%
- number of gene expression changes induced ([4]; 24 h): 394
- TNFAIP6 expression elevation ([4]; 24 h, microarray): ~3 fold
- TNFSF4 expression elevation ([4]; 24 h, microarray): ~3 fold
- number of gene expression changes induced ([4]; 48 h): 501
